Laboratory results: patent publication US8741879B2, “Petroleum jelly-free unguent compositions comprising vitamin D compounds and optionally steroidal anti-inflammatory agents” (Galderma S.A., priority 2006, dated 2014)

Legend:
[1] = Stability of calcitriol 30 ppm solution in absolute ethanol with 0.02% BHT (HPLC assay against a reference substance); format: physicochemical; conditions: 30 ppm in absolute ethanol
Description: b) Stability of Calcitriol in Ethanol: Calcitriol solution 30 ppm in qs 100% absolute ethanol in the presence of 0.02% BHT. Assay technique by HPLC against a reference substance. The starting time (T0) is considered to be 100%.

[2] = Solubility of clobetasol propionate in solvents (HPLC); format: physicochemical
Description: a) Solubility of Clobetasol Propionate:

| SMILES | Calcitriol remaining (T0 = 100%) ([1]; +4° C., T1week) [%] | Calcitriol remaining (T0 = 100%) ([1]; +4° C., T2weeks) [%] | Calcitriol remaining (T0 = 100%) ([1]; +4° C., T3weeks) [%] | Calcitriol remaining (T0 = 100%) ([1]; +4° C., T4weeks) [%] | Calcitriol remaining (T0 = 100%) ([1]; +30° C., T2weeks) [%] | Calcitriol remaining (T0 = 100%) ([1]; +30° C., T4weeks) [%] | Calcitriol remaining (T0 = 100%) ([1]; −18° C., T1week) [%] | Calcitriol remaining (T0 = 100%) ([1]; −18° C., T2weeks) [%] | Calcitriol remaining (T0 = 100%) ([1]; −18° C., T3weeks) [%] | Calcitriol remaining (T0 = 100%) ([1]; −18° C., T4weeks) [%] | Solubility ([2]; in Ethanol 96) [mg/g] | Solubility ([2]; in Propylene glycol) [mg/g] | Solubility ([2]; in Transcutol) [mg/g] |
| --- | --- | --- | --- | --- | --- | --- | --- | --- | --- | --- | --- | --- | --- |
| C=C1/C(=C\C=C2/CCC[C@]3(C)[C@@H]([C@H](C)CCCC(C)(C)O)CC[C@@H]23)C[C@@H](O)C[C@@H]1O [Calcitriol, calcitriol] | 97.7 | 98.6 | 98.1 | 97.7 | 93.4 | 93.0 | 100.9 | 100.5 | 99.5 | 99.5 | – | – | – |
| CCC(=O)O[C@]1(C(=O)CCl)[C@@H](C)C[C@H]2[C@@H]3CCC4=CC(=O)C=C[C@]4(C)[C@@]3(F)[C@@H](O)C[C@@]21C [Clobetasol Propionate, clobetasol 17-propionate] | – | – | – | – | – | – | – | – | – | – | 50.40 | 9.10 | 120.70 |
